Laboratory results published in US20090203877A1, “X-RAY-DENSE CONJUGATE” (Eberhard-Karls-Universitaet Tuebingen Universitaetsklinkum, priority 2006, published 2009).
“Also recorded” adds a separate entry of the source.

What was measured:
[1] = test system: human malignant U373 glioma cells; test: Computer tomography, signal density of cell pellets; format: cell-based; conditions: 260 μM, 20 min
Method: (§1) For CT and FACS human U373 glioma cells were grown under the same conditions in 75 cm^2 culture flasks (Corning Costar, Bodenheim, Germany) (70% confluency). Accutase™ (PAA laboratories, Pasching, Austria) was added to achieve detachment of the cells which were harvested and subsequently aliquoted into Eppendorf tubes (6×10^6 cells per tube). As in the investigations performed by fluorescence microscopy, the cells in the first tube served as a control (PBS only). The cells in the other tubes were incubated with 260 μM Ultravist, 260 μM TIBA in PBS and 26 μM, 260 μM and 2.6 mM conjugates 1-4 in PBS. After a 20 minute incubation period at 37° C. in an atmosphere of 5% CO2, the cells were washed three times in PBS and centrifuged at 800 rpm for 5 minutes.
The inner ear spiral CT protocol consisted of: tube voltage 120 KV, effective mAs 550, time of imaging TI: 1.5, SL 0.75/0.75/4.5, FOV: 50 0/52, kernel: U70, window: intervertebral disc.
3D-images were obtained using InSpace Software (Syngo CT 2006G) (Siemens AG, Erlangen, Germany).
(§2) After an incubation of 20 minutes at 37° C./5% CO2 the cells were washed three times with PBS buffer and centrifuged at 800 rpm (rounds per minute) for 5 minutes. The fluorescence was measured in Becton Dickinson FACSCalibur as described under 1.4. The computer tomography was performed as described under 1.5.1. The examinations were repeated two times. […]
An Orbita CT spiral was used: tube voltage 120 KV, effective mAs 550, time of imaging TI: 1.5, SL 0.75/0.75/4.5, FOV: 50 0/52, GT: 0.0, kernel: U70, window: intervertebral disc. 3D images were made with the InSpace Software (Syngo CT 2006G) (Siemens AG, Erlangen, Germany). […]

[2] = test system: human vascular endothelial cells; conditions: traditional contrast media; cited from earlier work
[3] = test system: human malignant U373 glioma cells; test: Uptake/staining of cells by FITC-labelled conjugates (fluorescence microscopy, CLSM, FACS, semi-thin sections); format: cell-based; conditions: 260 μM
Method: Fluorescence was measured in a Becton Dickinson FACSCalibur. […] The investigations were performed in triplicate.
as §1
The FACS analysis was performed as described under 1.4.
(§3) The human malignant U373 and LN18 glioma cells were cultivated in 75 cm^2 culture flasks (Corning Costar) (70% confluency) under the conditions as described under 1.4, detached from the flask bottom with Accutase™ (PAA Laboratories) and in the following distributed on Eppendorf tubes (Eppendorf, Hamburg, Germany) (6×10^6 per tube). The cells in the first tube serve as a control (only PBS buffer only). The cells in the other ten tubes were each incubated with benzoic acid (BA), monoiodobenzoic acid (MIBA) or diiodobenzoic acid (DIBA) alone (260 μM), conjugate 3 alone (260 μM), conjugate 3 plus either BA, MIBA or DIBA (260 μM), respectively, and the conjugates 9, 10, and 11 alone. (260 μM).
After an incubation of 20 minutes at 37° C./5% CO2 the cells were washed three times with PBS buffer and centrifuged at 800 rpm (rounds per minute) for 5 minutes. The fluorescence was measured in Becton Dickinson FACSCalibur as described under 1.4. The computer tomography was performed as described under 1.5.1. The examinations were repeated two times.
(§4) For the CT and FACS examinations human LN-18 and U373 glioma cells were cultivated in 75 cm^2 culture flasks (Corning Costar) (70% confluency) (conditions as described under 1.4). Accutase™ (PAA Laboratories) was added to detach the cells from the bottom of the culture flasks. The cells were collected and then distributed on Eppendorf tubes (6×10^6 cells per tube). The cells in the first two tubes serve as a control (in each case only PBS, LN18 and U373 glioma cells, native). The cells in the other tubes (in each case LN18 and U373 glioma cells) were incubated with a 260 μM or 2.6 mM solution of the conjugate 12 for 20 minutes at 37° C. and 5% CO2 and in the following washed for three times with PBS buffer and centrifuged for 5 minutes with 800 rpm (rounds per minute). For a small amount of the cells it was tested by the MMT test (see 1.4) how many of the cells were still viable. The computer tomography of the cell centrifuges was performed with the Somatom Sensation 16 (Siemens).
(§5) The FACS analysis was performed as described under 1.4. The assay was repeated two times.
For the CT and FACS examinations human LN18 and U373 glioma cells were cultivated in 75 cm^2 culture flasks (70% confluency) (conditions as described under section 1). Accutase™ (PAA Laboratories) was added to detach the cell from the culture bottom. The cells were collected and then distributed on Eppendorf-tubes (6×10^6 cells per tube). […] The next three tubes were used for the coincubation of the cells either with trichlorobenzoic acid (TCBA), trifluorobenzoic acid (TFBA) or tribromophenyl Isocyanat (TBPI) and the NLS-FITC-conjugate 3 (260 μM). As control cells were used which were only either incubated with CIBA, FIBA, TBPI (in each case 260 μM in PBS) or with PBS-buffer (native control) alone. […] The computer tomography and FACS analysis of the cell centrifuges were performed as described in 1.5.1 or 1.4, respectively for three times. […]

[4] = test system: human malignant LN18 glioma cells; test: Uptake/staining of cells by FITC-labelled conjugates (CLSM, FACS, semi-thin sections); format: cell-based; conditions: 260 μM; for nuclear staining of cells (CLSM), in words: 20 min; for heavily stained cells: FIGS. 8, 13-16; for staining of nucleoli in semi-thin sections (about 0.4 μm): after incubation
Method: as §3, §2, §5
For the CT and FACS examinations human LN18 and U373 glioma cells were cultivated in 75 cm^2 culture flasks (70% confluency) (conditions as described under section 1). Accutase™ (PAA Laboratories) was added to detach the cell from the culture bottom. The cells were collected and then distributed on Eppendorf-tubes (6×10^6 cells per tube). […] The next three tubes were used for the coincubation of the cells either with trichlorobenzoic acid (TCBA), trifluorobenzoic acid (TFBA) or tribromophenyl Isocyanat (TBPI) and the NLS-FITC-conjugate 3 (260 μM). As control cells were used which were only either incubated with CIBA, FIBA, TBPI (in each case 260 μM in PBS) or with PBS-buffer (native control) alone. […] The computer tomography and FACS analysis of the cell centrifuges were performed as described in 1.5.1 or 1.4, respectively for three times.
All measurements were performed on living cells.
All measurements were performed on living cells in triplicates.
A part of the cells which were stained for the FACS analysis, was fixed by paraformaldehyl with 2% Agar, dehydrogenized in ethanol, embedded in Lowicryl K4M (Polysciences, Eppelheim, Germany) and according to the information of the manufacturer UV-polymerised at room temperature. Semi-thin sections (about 0.4 μm) were cut and evaluated by means of fluorescence microscopy.

[5] = test system: human malignant LN18 glioma cells; test: Cell viability / cell death (annexin-V-Alexa 568 binding, propidium iodide, FACS scatter morphology); format: cell-based; conditions: 260 μM, 20 min, substance alone
Method: All measurements were performed on living, non-fixed cells. […] All measurements were performed on living cells. […] All measurements were performed on living cells in triplicates. […] All measurements were performed on living cells.

[6] = test system: human malignant LN18 glioma cells; test: Computer tomography, signal density of cell centrifugates; format: cell-based; conditions: 260 μM, 20 min
Method: as §4, with “After an incubation of 20 minutes at 37° C./5% CO2 the cells were washed three times with PBS buffer and centrifuged at 800 rpm (rounds per minute) for 5 minutes. The fluorescence was measured in Becton Dickinson FACSCalibur as described under 1.4. The computer tomography was performed as described under 1.5.1. The examinations were repeated two times. For the” for “For the”, “16 (Siemens). An Orbita CT spiral was used: tube voltage 120 KV, effective mAs 550, time of imaging TI: 1.5, SL 0.75/0.75/4.5, FOV: 50 0/52, GT: 0.0, kernel: U70, window: intervertebral disc. 3D images were made with the InSpace Software (Syngo CT 2006G) (Siemens AG, Erlangen, Germany). […] Accutase™ (PAA Laboratories) was added to detach the cell from the culture bottom. The cells were collected and then distributed on Eppendorf-tubes (6×10^6 cells per tube).” for “16 (Siemens).”

Compound	CT signal density of cell pellets [1]	concentration at which apoptosis is induced [2]	cells strongly stained by FITC, FACS histogram [3]	cells strongly stained by FITC, FACS histogram [4]	nuclear staining of cells (CLSM), in words ([4]; listed as K15)	heavily stained cells [4]	staining of nucleoli in semi-thin sections (about 0.4 μm) [4]	cell death / vitality (annexin-V-Alexa 568, propidium iodide) [5]	cell death / vitality (annexin-V-Alexa 568, propidium iodide) ([5]; listed as K15)	CT signal density of cell centrifugates [6]	nuclear staining of cells (CLSM), in words [4]
COCC(=O)Nc1c(I)c(C(=O)NCC(O)CO)c(I)c(C(=O)N(C)CC(O)CO)c1I (stereo not shown) [Ultravist, Iopromid, reference compound]	only low signal density values; also recorded: did not result in any increase in signal density	250 mg iodine per millilitre									
CNC(=O)c1c(I)c(C(=O)NCC(=O)Nc2c(I)c(C(=O)O)c(I)c(C(=O)NCCO)c2I)c(I)c(N(C)C(C)=O)c1I [ioxaglate]		250 mg iodine per millilitre									
PKKKRKVK(FITC)GGK(TBPI) (PKKKRKVKGGK; FITC, GGK linker, TBPI) [conjugate 15, FITC-labelled tribromophenyl isocyanate-NLS-conjugate]	did not result in an increase of the signal density		clear increase of the cells which are strongly stained by FITC	clear increase of the cells which are strongly stained by FITC	strong staining of the nucleus in almost all cells; also recorded: nuclei of the LN18 glioma cells accumulate	78%	strongly stained; also recorded: accumulate in the nucleoli	signs of cell death	Alexa-annexin binds to the surface of the cells	did not result in an increase of the signal density	
PKKKRKVK(FITC)GGK(TCBA) (PKKKRKVKGGK; FITC, GGK linker, TCBA) [conjugate 14, FITC-labelled NLS with trichlorobenzoic acid]	did not result in an increase of the signal density		shift of the histogram peak to the right	shift of the histogram peak to the right		78%	accumulate in the nucleoli	dead and signs of cell death		did not result in an increase of the signal density	almost all nuclei are stained
PKKKRKVK(FITC)GGK(TFBA) (PKKKRKVKGGK; FITC, GGK linker, TFBA) [conjugate 13, FITC-labelled NLS with trifluorobenzoic acid]	did not result in an increase of the signal density		shift of the histogram peak to the right	shift of the histogram peak to the right		78%	accumulate in the nucleoli	no longer vital; also recorded: signs of cell death		did not result in an increase of the signal density	stains a large number of cells in the nucleus
